Consider three compounds from patent US9096591B2, “Tetracyclic compounds” (Medivation Technologies, Inc., priority 2007, dated 2015).

Where two headings read alike, the source gives them in different places.

Experiment [1] has as its system rat brain mitochondria. Kind of experiment: Mitochondrial membrane potential (safranine test). It counts as biochemical, Wistar rats. As to conditions: compounds did react with safranine in buffer without mitochondria. The method, then:
The same experimental conditions were used for the assessment of alterations of the mitochondrial membrane potential, except that safranine was included in incubation medium at a final concentration of 10 mkM and succinate was added before the compounds of the invention. This concentration of safranine was determined before hand as the optimal compromise between signal/baseline ratio and interference of safranine itself with swelling induced by Ca/Pi (safranine tended to enhance Ca/Pi-induced swelling at concentrations above 20 mkM). Changes in the status of the mPT pore were assessed spectrophotometrically at 554 and 524 nm in a cuvette in a Beckman DU 640 spectrophotometer. A554-524 represents the characteristics of mitochondrial potential and A554-characteristics of mitochondrial swelling.

Experiment [2] deals with rat brain mitochondria. Kind of experiment: Ca2+-induced swelling of mitochondria (MPT pore opening). In kind it is biochemical, Wistar rats. Particulars: for A540 increase in mitochondrial suspension after addition of 100 μM of compound: 100 μM compound. The method, then: Rat liver and brain mitochondria were prepared from male Wistar rats. The rats were euthanized in a CO2 chamber followed by decapitation the procedure being in compliance with the Guidelines for Animal Experiments at IPAC RAS. […]
Brain mitochondria were isolated from the pooled forebrains of two rats. The modified method of Sims was used to isolate and purify brain mitochondria in a Percoll gradient. The brain was homogenized in “buffer A” (225 mM mannitol, 75 mM sucrose, 5 mM HEPES, 1 mM EGTA, pH 7.4 [KOH]) and centrifuged for 10 min at 1300 g. The supernatant was centrifuged for 10 min at 10000 g, and then the pellet was suspended in 15% Percoll and layered on a discontinuous gradient consisting of 40 and 23% Percoll, respectively, which was then centrifuged for 10 min at 30000 g without using brakes. The mitochondria were collected from the interface of the lower two layers and after resuspension in “buffer A”, the suspension was centrifuged at 16600 g for 10 min, then the pellet was resuspended in “buffer A”, BSA (10 mg/mL) was added to bind free fatty acids; and the suspensions was centrifuged again at 6300 g for 10 min. Following centrifugation the pelleted mitochondria were re-suspended in isolation medium without EGTA to achieve a protein concentration of 15-20 mg/ml.
Mitochondrial swelling caused by influx of solutes through open PT pores results in an increase in light transmission (i.e., a reduced turbidity). This turbidity change offers a convenient and frequently used assay of the MPT by measurement of absorbance in mitochondrial suspensions. In the present study, the MPT induced by Ca^2+ and inorganic phosphate (Ca/Pi) was monitored by absorbance changes at 540 nm in a cuvette in a Beckman DU 640 spectrophotometer in 1 ml of buffer A plus 0.8 μM rotenone, 5 mM succinate, 1 mM KH2PO4 and 0.5 mg or 0.2 mg protein of isolated liver or brain mitochondria, accordingly. Reaction was started by the addition of triggering agent (Ca^2+). Pre-treatment and reaction were performed at 30° C. Swelling rate was quantified as ΔA540/min/mg, calculated, in all cases, from a tangent to the steepest portion of the plot of A540 versus time.
Ca^2+-induced Swelling of mitochondria was used as the primary screening test for compounds influence on MPT pore opening. […] But the inhibition of swelling may be connected not only with direct inhibition of MPT pore opening but also with the impairment of respiratory function of mitochondria and with the compounds action on calcium transport into mitochondria. For the primary estimation of these possibilities the mitochondrial membrane potential and calcium retention capacity of mitochondria were measured. […] New synthesized compounds (except C-14 and C-43) alone induced an increase of brain mitochondria suspension turbidity. The mechanism of such effect needs additional investigations.

The test system of experiment [3] is C57BL/6 mice. Particulars: 0.01-0.1 mg/kg; previously shown; cited from earlier work.
Experiment [4] has as its system mice. Nature of the experiment: recognition test of new location of a known object (spatial memory). In kind it is in vivo.
Experiment [5] has as its system adrenergic receptors α1D, α2A, α2B; serotonin receptor 5-HT6; dopamine receptor D2L. Nature of the experiment: Classification of compounds (Type 1-4) from receptor binding and neurite outgrowth.
Where [6] appears, read: read-out: IC50, Ca2+-induced (25-50 μM) swelling of brain mitochondria, rat brain mitochondria, Ca2+ 25-50 μM.

The term IC50 denotes the concentration at which inhibition is half-maximal. On to `CN1CCc2c(c3cc(Cl)ccc3n2CCc2nc(-c3ccccc3)cs2)C1` [Compound C1-8], for which the “depolarizing activity in safranine test” value in experiment [1] was “depolarizing activity”. In addition, the concentration for half-maximal inhibition (IC50) in experiment [2] (concentration reducing to 50% the initial rate of turbidity fall after calcium addition, read-out: IC50, decrease of calcium-induced swelling of brain mitochondria) was approximately 6 µM; in experiment [2] (setting [6]), 6.25 ± 6.25 µM. Also, the “A540 increase in mitochondrial suspension after addition of 100 μM of compound” value in experiment [2] (rat brain mitochondria) came out at 25 rel.units.

Regarding `Cc1ccc2c(c1)c1c(n2CCc2ccc(C)nc2)CCN(C)C1` [Dimebon, dimebon, reference compound], the “effect on memory in the recognition test of a known object in a new location” value in experiment [3] is listed as “dose-dependent activating effect on memory”. The “Influence on memory in the test recognition new localization of known object” value in experiment [4] (Dose of Compound 0.05 mg/kg) is on record as “+”; in experiment [4] (Dose of Compound 0.1 mg/kg), “+”; in experiment [4] (Dose of Compound 0.5 mg/kg) it was “−”; in experiment [4] (Dose of Compound 1.0 mg/kg) it was “−”. For the same compound, the “A540 increase in mitochondrial suspension after addition of 100 μM of compound” value in experiment [2] (rat brain mitochondria) amounted to 1 rel.units. In experiment [2] (setting [6]), the IC50 was determined as 66 ± 26 µM.

Consider `CN1CCc2c(c3cc(Cl)ccc3n2CCc2ccc(C(F)(F)F)nc2)C1` [Compound 250], for which the “compound type (classification by receptor binding profile and neurite outgrowth)” value in experiment [5] is “Type one”.
